Data on two molecules can be found in patent US11925643B2, “Toll-like receptor 4 (TLR4) inhibitors and use thereof” (MOR RESEARCH APPLICATIONS LTD., priority 2018, dated 2024).

Residues, ends and D or L forms follow the SMILES beside them.

For one test, the system named is TLR4 mRNA. The test is described as follows: TLR4 mRNA level by RT-qPCR in hypoxic cardiomyocytes. The test is classed as cell-based. The conditions noted are these: hypoxic conditions. The method, then: Real-time RT-PCR experiments were performed in duplicates on an ABI 7900 instrument (Applied Biosystems™) using Taqman™ Master Mix (Applied Biosystems™). The average threshold cycles (Ct) of the duplicates were used to calculate the relative expression levels of the following genes: TLR4 (Applied Biosystems™ assay primer ID: Mm00569848_m1 Tlr4), TLR2 (assay primer ID: Mm01769726_m1 Tlr2), TNF-α (assay primer ID: Mm00443260_g1 Tnf) and IL-1β (assay primer ID: Mm00434228_m1 II1b) in vitro and in vivo following hypoxia or ischemia, respectively. The reference gene was TBP and the primer used was derived from mouse TATA-box binding protein (Applied Biosystems™ assay primer ID: Mm00446973_m1 Tbp). Amounts of TLR2, TLR4, TNF-α and IL-1β mRNAs in each sample were calculated relative to TBP mRNA, based on the corresponding Cts, as Relative Quantity (RQ) values, and normalized taking as 1 a randomly selected sample of the control group (TBP mRNA). Calculation were performed using the Applied Biosystems Analysis™ software (StepOnePlus V2.2.2). All mRNA scores are presented in arbitrary units.
Next, peptidomimetics of SEQ ID NOs:1 and 2 were tested for their ability to affect the expression of TLR4. The level of TLR4 mRNA was measured by real-time reverse transcriptase polymerase chain reaction (RT-qPCR) method as described in Materials and Methods. The possible effect of both compounds on expression levels of TLR2 mRNA was used as a negative control.

Test [1] concerns primary cardiomyocytes. The test is described as follows: CK and LDH release by primary cardiomyocytes under LPS treatment (sepsis like). It is filed as cell-based, Rat. The conditions noted are these: LPS treatment; 20 μM. The protocol:
(§1) Rat hearts (1-2 days old) were removed under sterile conditions and washed three times in phosphate-buffered saline (PBS) to remove excess blood cells. The hearts were minced and then gently agitated in RBD (a solution of proteolytic enzymes (Biological Institute, Ness-Ziona, Israel) prepared from fig tree extract, and diluted 1:100 in Ca^2+- and Mg^2+-free PBS) for a few cycles of 10 min each. Dulbecco's modified Eagle's medium (Biological Industries, Kibbutz Beit Haemek, Israel) containing 10% horse serum was added to supernatant suspensions containing the dissociated cells. The mixture was centrifuged at 1400 rpm for 4 min. The supernatant phase was discarded, and the cells were re-suspended. The cell suspension was diluted to 1.0×10^6 cells/ml, unless stated otherwise, and 1.5 ml of the suspension was placed in 35-mm plastic culture dishes collagen- or gelatin-coated, or on coated cover glasses. The cultures were incubated in a humidified atmosphere of 5% CO2 and 95% air at 37° C.
(§2) Primary cardiomyocytes which were obtained by method described above, were treated with exemplary decoy peptides described herein. After 30 minutes of incubation, sepsis like (LPS treatment for 6 hours), or myocardial infarction (MI) like (hypoxia for 3 hours) conditions were imposed to measure the release of CK and LDH to the medium and determine the potential cardioprotective effect of the tested decoy peptides. Cytotoxicity and level of cell damage were assessed by spectrophotometric measurement of lactate dehydrogenase (LDH) and creatine kinase (CK) activities (at 30° C.). Results are presented as CK and LDH release in arbitrary units (a.u.)
(§3) Activity of LDH and CK was determined in the cell-culture medium (25 μl) transferred into 96-well plates, using commercial L-LDH/CK kits (such as those manufactured, e.g., by Sigma-Aldrich, BioVision™ or Thermo Fisher Scientific®).
(§4) Primary cardiomyocytes were treated with peptides and peptidomimetics of SEQ ID NOs:1-7 provided at concentrations ranging from 1 μM to 20 μM. Following 30 minutes of incubation, sepsis like (LPS treatment for 6 hours) or MI like (hypoxia for 3 hours) conditions were induced to determine the potential cardioprotective effect of the tested compounds. Creatine kinase (CK) and lactate dehydrogenase (LDH) activity were assayed to determine the level of cellular damage and cell protection effect. The experimental procedure is described in Materials and Methods above. Results are presented as CK and LDH release in arbitrary units (a.u.).

For the next test, the system named is IκB. The test is described as follows: IκB protein level by Western blot in hypoxic cardiomyocytes. The test is classed as cell-based. The method, then:
Frozen tissue/cell cultures of liver or heart were pulverized under liquid nitrogen and placed in a homogenization buffer ([…] phosphate buffer, […] sucrose, […] EDTA, […] phenylmethylsulfonyl fluoride (PMSF), and 0.1% vol/vol tergitol, pH 7.5). Myocytes from cell cultures were homogenized in lysis buffer.
Homogenates were centrifuged at 12K rpm for 10 minutes at 4° C., the supernatant was isolated, and protein levels were visualized by immunoblotting with antibodies. Briefly, proteins (60 μg/sample) were separated using SDS-PAGE gel (12%-15%) under denaturing conditions and electro-transferred (blotted) onto nitrocellulose (Bio-Rad) for 1 hour at 100 V. Membranes were blocked with 5% nonfat milk in Tris-buffered saline with 0.1% Tween® 20 (TBST) for 1 hour at room temperature. Primary antibodies were used at a 1:200-1:1000 concentration in TBST with 5% nonfat milk overnight at 4° C. Immunodetection of β-actin/GPDH was performed as an internal control. Dye 800/680 secondary antibodies were added at a concentration of 1:15000 for 1 hour at room temperature (LI-COR® Biosciences, NE, USA). Detection was carried out with LI-CORE® Odyssey® imaging system. Quantification of signals was carried out with the Odyssey® program.
The mechanism of action of peptidomimetics of SEQ ID NOs:1, 2 and 12 was studied in vitro in cardiomyocytes, under hypoxic conditions, by determining the expression level of the IκB gene, which is regulated by activation of TLR4, and by measuring the TLR4 mRNA levels. In addition, TLR4 expression level was measured in macrophage (derived from monocytes) treated with LPS.
IκB protein level was determined by Western blot as described in Material and Methods. The amount of IκB was normalized via-a-vis the amount of β-actin serving as the loading control (the β-actin is coded by a housekeeping gene and its level is expected to remain constant under any experimental conditions).
(A western blot detects proteins with antibodies after separation by electrophoresis.)

Test [2] deals with primary cardiomyocytes. The test is described as follows: CK and LDH release by primary cardiomyocytes under hypoxia (MI like). The test is classed as cell-based, Rat. The method, then:
as §1
Using a vacuum pump, the oxygen rich air was evacuated from an incubator containing plates with cell cultures, and a 100% Argon atmosphere was let in, while maintaining a temperature of 37° C. The cell cultures were washed with PBS twice to remove glucose from the medium. Hypoxic treated cells were cultures in PBS without glucose. These cells lasted for 180 minutes.
as §2, §3, §4
For orientation: Release of lactate dehydrogenase indicates damage to the cell membrane.

On to `CCCCCCCCNc1nc(=O)n(Cc2ccccc2)cc1C` [PM6, 1-benzyl-5-methyl-4-(octylamino)pyrimidin-2(1H)-one], for which, in the test with TLR4 mRNA, the “inhibition of TLR4 mRNA production” value was roughly 3.3 fold. Also, in the test with primary cardiomyocytes [1], the CK release result was “no significant effect” and the LDH release entry was “no significant effect”. Besides, the “inhibition of decrease of IκB protein level” value in the test with IκB (20 μM, compared to hypoxic cells not treated) is given as “roughly 7 fold”. Besides, in the test on primary cardiomyocytes [2] (20 μM), the CK release result is reported as “significant reduction” and the LDH release result is given as “significant reduction”.
Turning to `CC[C@H](C)[C@H](NC(C)=O)C(=O)N[C@H](C(=O)N[C@@H](Cc1ccccc1)C(=O)N[C@@H](C)C(N)=O)C(C)C` [SEQ ID NO:1, (2S,3S)-2-acetamido-N-((S)-1-(((S)-1-(((S)-1-amino-1-oxopropan-2-yl)amino)-1-oxo-3-phenylpropan-2-yl)amino)-3-methyl-1-oxobutan-2-yl)-3-methylpentanamide] (Ac-IVFA-NH2), the “TLR4 mRNA expression level” value in the test with TLR4 mRNA is listed as “significantly decreased”. Moreover, in the test with primary cardiomyocytes [1], the CK release result is on record as “subnormal levels” and the LDH release entry is reported as “subnormal levels”. Further, the IκB level result in the test on IκB (normalized to β-actin) was “high levels”. Further, the “minimal effective concentration (cardioprotective effect, CK and LDH release)” value with primary cardiomyocytes [2] was 1 µM.
